# Assays:
# Assay in all cases: Test D controlled growth environment herbicide test, pre- and postemergence
# Type in all cases: in vivo
# [1] = tested on: field poppy (Papaver rhoeas)
# How it was run: (§1)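 Species sown in silt loam and sprayed preemergence, or grown in peat-based medium to 2–18 cm (1- to 4-leaf stage) and sprayed postemergence, with compounds in non-phytotoxic solvent plus surfactant. Visual injury scored versus controls after 14–21 d in a controlled environment, 0 (no effect) to 100 (complete control).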
# [2] = tested on: barley, spring (spring barley, Hordeum vulgare)
# How it was run: as §1
# [3] = tested on: speedwell (bird's-eye speedwell, Veronica persica)
# How it was run: as §1
# [4] = tested on: windgrass (Apera spica-venti)
# How it was run: as §1
# [5] = tested on: oilseed rape (Brassica napus)
# How it was run: as §1
# [6] = tested on: wheat, spring (spring wheat, Triticum aestivum)
# How it was run: as §1
# [7] = tested on: oat, wild (wild oat, Avena fatua)
# How it was run: as §1
# [8] = tested on: canarygrass (Phalaris minor)
# How it was run: as §1
# [9] = tested on: ryegrass, Italian (Italian ryegrass, Lolium multiflorum)
# How it was run: as §1
# [10] = tested on: deadnettle (henbit deadnettle, Lamium amplexicaule)
# How it was run: as §1
# [11] = tested on: buckwheat, wild (wild buckwheat, Polygonum convolvulus)
# How it was run: as §1
# [12] = tested on: radish, wild (wild radish, Raphanus raphanistrum)
# How it was run: as §1
# [13] = tested on: Russian thistle (Salsola kali)
# How it was run: as §1
# [14] = Postemergence, 31 g ai/ha, scale 0 to 100 (0 no effect, 100 complete control)
# [15] = Postemergence, 125 g ai/ha, visual rating on scale 0 (no effect) to 100 (complete control), 14 to 21 d
# [16] = Postemergence, 250 g ai/ha, scale 0 to 100 (0 no effect, 100 complete control)
# [17] = Preemergence, 62 g ai/ha, scale 0 to 100 (0 no effect, 100 complete control)
# [18] = Preemergence, 125 g ai/ha, scale 0 to 100 (0 no effect, 100 complete control)
# [19] = Preemergence, 250 g ai/ha, scale 0 to 100, 0 no effect, 100 complete control
# [20] = postemergence, 62 g ai/ha, scale 0 to 100, 0 no effect, 100 complete control
compound,measurement,setting,value
Cc1nn(C)c(=O)c(-c2c(C)sc3c(C)cc(Cl)cc23)c1O [Compound 35],Field Poppy plant response rating,[1]; [14],100
same,"Plant response rating, Field Poppy",[1]; [15],100
same,"Plant response rating, Field Poppy",[1]; [16],100
same,"Plant response rating (scale of 0 to 100), Field Poppy","[1]; Preemergence, 31 g ai/ha",75
same,"Plant response rating, Field Poppy",[1]; [17],85
same,"Plant response rating, Field Poppy",[1]; [18],100
same,"Plant response rating, Field Poppy",[1]; [19],100
same,"Plant response rating, Field Poppy",[1]; [20],100
same,"Plant response rating, Barley, Spring",[2]; [14],0
same,"Plant response rating, Barley, Spring",[2]; [15],10
same,"Plant response rating, Barley, Spring",[2]; [16],15
same,"Plant response rating (scale of 0 to 100), Barley, Spring","[2]; Preemergence, 31 g ai/ha",0
same,"Plant response rating, Barley, Spring",[2]; [17],0
same,"Plant response rating, Barley, Spring",[2]; [18],0
same,"Barley, Spring plant response rating",[2]; [19],0
same,"Plant response rating, Barley, Spring",[2]; [20],0
same,Speedwell plant response rating,[3]; [14],70
same,"Plant response rating, Speedwell",[3]; [15],80
same,"Plant response rating, Speedwell",[3]; [16],100
same,"Plant response rating (scale of 0 to 100), Speedwell","[3]; Preemergence, 31 g ai/ha",0
same,"Plant response rating, Speedwell",[3]; [17],75
same,"Plant response rating, Speedwell",[3]; [18],100
same,"Plant response rating, Speedwell",[3]; [19],100
same,"Plant response rating, Speedwell",[3]; [20],75
same,Windgrass plant response rating,[4]; [14],25
same,"Plant response rating, Windgrass",[4]; [15],70
same,"Plant response rating, Windgrass",[4]; [16],85
same,"Plant response rating (scale of 0 to 100), Windgrass","[4]; Preemergence, 31 g ai/ha",25
same,"Plant response rating, Windgrass",[4]; [17],95
same,"Plant response rating, Windgrass",[4]; [18],100
same,"Plant response rating, Windgrass",[4]; [19],100
same,"Plant response rating, Windgrass",[4]; [20],65
same,Oilseed Rape plant response rating,[5]; [14],95
same,"Plant response rating, Oilseed Rape",[5]; [15],100
same,"Plant response rating, Oilseed Rape",[5]; [16],100
same,"Plant response rating (scale of 0 to 100), Oilseed Rape","[5]; Preemergence, 31 g ai/ha",0
same,"Plant response rating, Oilseed Rape",[5]; [17],10
same,"Plant response rating, Oilseed Rape",[5]; [18],65
same,"Plant response rating, Oilseed Rape",[5]; [19],100
same,"Plant response rating, Oilseed Rape",[5]; [20],98
same,"Wheat, Spring plant response rating",[6]; [14],15
same,"Plant response rating, Wheat, Spring",[6]; [15],25
same,"Plant response rating, Wheat, Spring",[6]; [16],30
same,"Plant response rating (scale of 0 to 100), Wheat, Spring","[6]; Preemergence, 31 g ai/ha",0
same,"Plant response rating, Wheat, Spring",[6]; [17],0
same,"Plant response rating, Wheat, Spring",[6]; [18],5
same,"Plant response rating, Wheat, Spring",[6]; [19],30
same,"Plant response rating, Wheat, Spring",[6]; [20],20
same,"Oat, Wild plant response rating",[7]; [14],85
same,"Plant response rating, Oat, Wild",[7]; [15],85
same,"Plant response rating, Oat, Wild",[7]; [16],98
same,"Plant response rating (scale of 0 to 100), Oat, Wild","[7]; Preemergence, 31 g ai/ha",75
same,"Plant response rating, Oat, Wild",[7]; [17],80
same,"Plant response rating, Oat, Wild",[7]; [18],85
same,"Plant response rating, Oat, Wild",[7]; [19],95
same,"Plant response rating, Oat, Wild",[7]; [20],90
same,Canarygrass plant response rating,[8]; [14],20
same,"Plant response rating, Canarygrass",[8]; [15],70
same,"Plant response rating, Canarygrass",[8]; [16],80
same,"Plant response rating (scale of 0 to 100), Canarygrass","[8]; Preemergence, 31 g ai/ha",75
same,"Plant response rating, Canarygrass",[8]; [17],85
same,"Plant response rating, Canarygrass",[8]; [18],95
same,"Plant response rating, Canarygrass",[8]; [19],98
same,"Plant response rating, Canarygrass",[8]; [20],30
same,"Ryegrass, Italian plant response rating",[9]; [14],65
same,"Plant response rating, Ryegrass, Italian",[9]; [15],80
same,"Plant response rating, Ryegrass, Italian",[9]; [16],90
same,"Plant response rating (scale of 0 to 100), Ryegrass, Italian","[9]; Preemergence, 31 g ai/ha",75
same,"Plant response rating, Ryegrass, Italian",[9]; [17],85
same,"Plant response rating, Ryegrass, Italian",[9]; [18],100
same,"Plant response rating, Ryegrass, Italian",[9]; [19],100
same,"Plant response rating, Ryegrass, Italian",[9]; [20],75
same,Deadnettle plant response rating,[10]; [14],15
same,"Plant response rating, Deadnettle",[10]; [15],20
same,"Plant response rating, Deadnettle",[10]; [16],80
same,"Plant response rating (scale of 0 to 100), Deadnettle","[10]; Preemergence, 31 g ai/ha",0
same,"Plant response rating, Deadnettle",[10]; [17],15
same,"Plant response rating, Deadnettle",[10]; [18],55
same,"Plant response rating, Deadnettle",[10]; [19],80
same,"Plant response rating, Deadnettle",[10]; [20],20
same,"Buckwheat, Wild plant response rating",[11]; [14],95
same,"Plant response rating, Buckwheat, Wild",[11]; [15],100
same,"Plant response rating, Buckwheat, Wild",[11]; [16],100
same,"Plant response rating (scale of 0 to 100), Buckwheat, Wild","[11]; Preemergence, 31 g ai/ha",15
same,"Plant response rating, Buckwheat, Wild",[11]; [17],20
same,"Plant response rating, Buckwheat, Wild",[11]; [18],20
same,"Plant response rating, Buckwheat, Wild",[11]; [19],35
same,"Plant response rating, Buckwheat, Wild",[11]; [20],100
same,"Radish, Wild plant response rating",[12]; [14],85
same,"Plant response rating, Radish, Wild",[12]; [15],100
same,"Plant response rating, Radish, Wild",[12]; [16],100
same,"Plant response rating (scale of 0 to 100), Radish, Wild","[12]; Preemergence, 31 g ai/ha",35
same,"Plant response rating, Radish, Wild",[12]; [17],100
same,"Plant response rating, Radish, Wild",[12]; [18],100
same,"Plant response rating, Radish, Wild",[12]; [19],100
same,"Plant response rating, Radish, Wild",[12]; [20],100
same,Russian Thistle plant response rating,[13]; [14],70
same,"Plant response rating, Russian Thistle",[13]; [15],85
same,"Plant response rating, Russian Thistle",[13]; [16],95
same,"Plant response rating (scale of 0 to 100), Russian Thistle","[13]; Preemergence, 31 g ai/ha",0
same,"Plant response rating, Russian Thistle",[13]; [17],0
same,"Plant response rating, Russian Thistle",[13]; [18],0
same,"Plant response rating, Russian Thistle",[13]; [19],25
same,"Plant response rating, Russian Thistle",[13]; [20],75

# Source: patent US10597388B2, “Pyridazinone herbicides” (FMC CORPORATION, priority 2014, dated 2020)
